The source of these data is patent US12421205B2, “GLP-1 receptor agonist” (HYUNDAI PHARM CO., LTD., priority 2019, dated 2025).

One data set concerns the target T1, human GLP-1 receptor (Homo sapiens, UniProt P43220).
T1 construct: host or cells: CHO-K1
The data set is described as follows: cAMP activity test (cAMP dynamic HTRF kit) in CHO-K1/GLP-1 receptor-expressing cells. The format is cell-based. Conditions: cAMP activity, CHO-K1/GLP-1 receptor-expressing cells; read-out: EC50. Summed up:
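Cells in HBSS with 0.1% BSA, 0.5 mM IBMX and 5 mM HEPES, then lysed; cAMP-d2 and anti-cAMP cryptate added for 3 h. HTRF read-out, where FRET signal is inversely proportional to intracellular cAMP.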
(In general: In TR-FRET formats the signal depends on donor and acceptor labels being close together.)

The target of another data set is T2, hERG (Homo sapiens, UniProt Q12809).
T2 construct: purchased Invitrogen PV5365
The data set is described as follows: hERG inhibition test (Predictor hERG Fluorescence Polarization assay kit). In kind it is binding. As to conditions: probe kit Tracer (fluorescent hERG ligand), hERG % inhibition at 10 uM, relative to E-4031 and solvent control. The method in brief:
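Competitive fluorescence-polarization binding of fluorescent tracer to hERG membrane preparation, 2.5 h at room temperature, mP read at 531/579 nm. % inhibition at 10 uM test compound, scaled between solvent control (0%) and E-4031 (100%).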

T1 sequence (P43220 24-463): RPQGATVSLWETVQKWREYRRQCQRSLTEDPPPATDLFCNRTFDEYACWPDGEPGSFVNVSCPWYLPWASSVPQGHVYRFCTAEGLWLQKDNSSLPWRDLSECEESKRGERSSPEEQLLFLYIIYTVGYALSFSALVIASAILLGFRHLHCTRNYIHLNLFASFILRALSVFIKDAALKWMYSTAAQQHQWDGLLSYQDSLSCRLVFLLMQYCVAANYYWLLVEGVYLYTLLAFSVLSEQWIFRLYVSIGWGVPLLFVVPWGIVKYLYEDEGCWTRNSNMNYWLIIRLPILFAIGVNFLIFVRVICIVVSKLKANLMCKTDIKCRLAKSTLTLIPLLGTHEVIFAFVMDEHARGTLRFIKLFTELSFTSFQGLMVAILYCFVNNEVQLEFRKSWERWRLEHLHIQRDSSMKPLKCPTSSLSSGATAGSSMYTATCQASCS
T2 sequence (Q12809 whole entry): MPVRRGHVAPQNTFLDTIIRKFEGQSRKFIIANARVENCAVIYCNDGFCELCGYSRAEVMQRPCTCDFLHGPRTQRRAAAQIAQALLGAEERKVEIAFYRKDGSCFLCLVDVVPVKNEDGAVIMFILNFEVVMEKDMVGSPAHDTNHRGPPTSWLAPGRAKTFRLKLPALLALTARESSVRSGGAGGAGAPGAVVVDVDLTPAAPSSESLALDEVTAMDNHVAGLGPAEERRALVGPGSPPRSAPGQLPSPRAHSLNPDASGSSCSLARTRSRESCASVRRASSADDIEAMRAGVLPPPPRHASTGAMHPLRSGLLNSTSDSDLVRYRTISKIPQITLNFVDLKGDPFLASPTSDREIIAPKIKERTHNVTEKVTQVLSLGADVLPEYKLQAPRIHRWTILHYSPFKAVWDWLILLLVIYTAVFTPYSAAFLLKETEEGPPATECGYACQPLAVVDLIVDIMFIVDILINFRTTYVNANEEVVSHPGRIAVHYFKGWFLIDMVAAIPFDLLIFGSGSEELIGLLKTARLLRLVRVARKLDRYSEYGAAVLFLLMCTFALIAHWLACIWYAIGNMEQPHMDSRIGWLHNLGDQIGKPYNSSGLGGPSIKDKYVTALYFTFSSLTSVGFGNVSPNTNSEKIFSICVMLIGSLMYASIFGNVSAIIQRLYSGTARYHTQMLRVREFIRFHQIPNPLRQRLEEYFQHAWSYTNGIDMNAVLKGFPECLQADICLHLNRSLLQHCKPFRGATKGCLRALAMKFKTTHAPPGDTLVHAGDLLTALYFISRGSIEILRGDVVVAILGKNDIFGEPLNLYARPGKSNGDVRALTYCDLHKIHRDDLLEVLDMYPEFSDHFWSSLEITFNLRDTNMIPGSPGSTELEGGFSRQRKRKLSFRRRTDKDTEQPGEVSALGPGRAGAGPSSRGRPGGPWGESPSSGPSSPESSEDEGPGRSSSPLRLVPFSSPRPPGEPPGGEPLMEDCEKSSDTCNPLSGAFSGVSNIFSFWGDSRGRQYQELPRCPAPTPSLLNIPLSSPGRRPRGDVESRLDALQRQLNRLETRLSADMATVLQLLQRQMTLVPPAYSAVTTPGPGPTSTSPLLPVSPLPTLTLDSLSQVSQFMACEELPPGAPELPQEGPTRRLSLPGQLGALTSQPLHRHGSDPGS

What is called EC50 is the concentration that produces a half-maximal response. Usually inhibition stands for the relative decrease from the control value, in per cent. Regarding `O=C(O)c1ccc2nc(Cc3ccc(-c4cccc(OCc5c(F)cccc5Cl)n4)c(F)c3)n(CC3CCCO3)c2c1` (centres unmarked) [Example 101, 2-(4-(6-(2-chloro-6-fluorobenzyloxy)pyridin-2-yl)-3-fluorobenzyl)-1-((tetrahydrofuran-2-yl)methyl)-1H-benzo[d]imidazole-6-carboxylic acid], the concentration giving a half-maximal response (EC50) on human GLP-1 receptor turned out to be 320 nM. At hERG, the inhibition at 2.5 h, 10 µM was -2.37%.

As to `Cc1cc(-c2cccc(OCc3ccc(Cl)cc3F)n2)ccc1Cc1nc2ccc(C(=O)O)cc2n1C[C@@H]1CCO1` [Example 134, (S)-2-(4-(6-((4-chloro-2-fluorobenzyl)oxy)pyridin-2-yl)-2-methylbenzyl)-1-(oxetan-2-ylmethyl)-1H-benzo[d]imidazole-6-carboxylic acid], the EC50 on human GLP-1 receptor came to 190 nM. Besides, at hERG, the inhibition at 2.5 h, 10 µM was 28.3%.

For `O=C(O)c1ccc2nc(Cc3ccc(-c4cccc(OCc5ccc(Br)cc5F)n4)cc3F)n(CC3CCCO3)c2c1` (centres unmarked) [Example 89, 2-(4-(6-(4-bromo-2-fluorobenzyloxy)pyridin-2-yl)-2-fluorobenzyl)-1-((tetrahydrofuran-2-yl)methyl)-1H-benzo[d]imidazole-6-carboxylic acid], at human GLP-1 receptor, the concentration for a half-maximal effect (EC50) turned out to be 11 nM. Also, the inhibition at 2.5 h, 10 µM at hERG was 22.1%.

For the molecule `COCCn1c(Cc2ccc(-c3cccc(OCc4ccc(C#N)cc4F)n3)cc2C)nc2ccc(C(=O)O)cc21` [Example 54, 2-(4-(6-(4-cyano-2-fluorobenzyloxy)pyridin-2-yl)-2-methylbenzyl)-1-(2-methoxyethyl)-1H-benzo[d]imidazole-6-carboxylic acid], the concentration for a half-maximal effect (EC50) at human GLP-1 receptor amounted to 110 nM. Moreover, at hERG, the inhibition at 2.5 h, 10 µM was 36.5%.

For `N#Cc1ccc(COc2cccc(-c3ccc(Cc4nc5ccc(C(=O)O)cc5n4CCF)c(F)c3)n2)c(F)c1` [Example 44, 2-(4-(6-(4-cyano-2-fluorobenzyloxy)pyridin-2-yl)-2-fluorobenzyl)-1-(2-fluoroethyl)-1H-benzo[d]imidazole-6-carboxylic acid], the EC50 on human GLP-1 receptor was found to be 230 nM. Moreover, the inhibition at 2.5 h, 10 µM on hERG is 1.77%.

Turning to `O=C(O)c1ccc2nc(Cc3ccc(-c4cccc(OCc5ccc(Cl)cc5)n4)c(F)c3)n(C[C@@H]3CCO3)c2c1` [Example 123, (S)-2-(4-(6-((4-chlorobenzyl)oxy)pyridin-2-yl)-3-fluorobenzyl)-1-(oxetan-2-ylmethyl)-1H-benzo[d]imidazole-6-carboxylic acid], at human GLP-1 receptor, the EC50 is 14 nM. For the same molecule, the inhibition at 2.5 h, 10 µM at hERG was -0.45%.

For the molecule `COCCn1c(Cc2ccc(-c3cccc(OCc4ccc(C#N)cc4F)c3)cc2F)nc2ccc(C(=O)O)cc21` [Example 26, 2-((3′-(4-cyano-2-fluorobenzyloxy)-3-fluorobiphenyl-4-yl)methyl)-1-(2-methoxyethyl)-1H-benzo[d]imidazole-6-carboxylic acid], the concentration giving a half-maximal response (EC50) at human GLP-1 receptor is 270 nM. The inhibition at 2.5 h, 10 µM at hERG was 2.43%.

Consider `N#Cc1ccc(COc2cccc(-c3ccc(Cc4nc5ccc(C(=O)O)cc5n4CC4CCO4)cc3F)n2)c(F)c1` (centres unmarked) [Example 114, 2-(4-(6-((4-cyano-2-fluorobenzyl)oxy)pyridin-2-yl)-3-fluorobenzyl)-1-(oxetan-2-ylmethyl)-1H-benzo[d]imidazole-6-carboxylic acid], for which, on human GLP-1 receptor, the EC50 was less than 3.2 nM. The inhibition at 2.5 h, 10 µM at hERG was -4.71%.

As to `O=C(O)c1ccc2nc(Cn3cnc(-c4cccc(OCc5ccc(Cl)cc5F)n4)cc3=O)n(CC3CCCO3)c2c1` (centres unmarked) [Example 112, 2-((4-(6-(4-chloro-2-fluorobenzyloxy)pyridin-2-yl)-6-oxopyrimidin-1(6H)-yl)methyl)-1-((tetrahydrofuran-2-yl)methyl)-1H-benzo[d]imidazole-6-carboxylic acid], the half-maximal effective concentration (EC50) on human GLP-1 receptor turned out to be 290 nM. Moreover, the inhibition at 2.5 h, 10 µM on hERG was 1.14%.

For `O=C(O)c1ccc2nc(Cc3ccc(-c4cccc(OCc5ccc(F)c(F)c5)n4)cc3F)n(CC3CCCO3)c2c1` (centres unmarked) [Example 85, 2-(4-(6-(3,4-difluorobenzyloxy)pyridin-2-yl)-2-fluorobenzyl)-1-((tetrahydrofuran-2-yl)methyl)-1H-benzo[d]imidazole-6-carboxylic acid], the concentration giving a half-maximal response (EC50) at human GLP-1 receptor worked out at 74 nM. Further, the inhibition at 2.5 h, 10 µM at hERG is -12.9%.
